Measurements reported in US20170290891A1, “METHOD OF BONE REGENERATION OR BONE AUGMENTATION” (TOYOBO CO., LTD., priority 2016, published 2017).

Columns and labels:
[1] = test system: standardized full-thickness bone defect of the calvarium; experiment: Test Example 1: rat calvarium bone defect, OCP or β-TCP collagen composite + teriparatide subcutaneous injection; format: in vivo, Male Wistar rats
Description: Male Wistar rats (12 weeks old) were each intraperitoneally anesthetized, and a skin incision and a periosteal incision were made in the calvarium part to expose the calvarium. A standardized full-thickness bone defect (diameter: about 9 mm), for which spontaneous recovery could not be expected, was created. Then, one OCP/collagen composite disc produced in Production Example 2 or one β-TCP/collagen composite disc produced in Production Example 3 was implanted therein. As the control, rats in which only a bone defect was created, and no sample was implanted (untreated group) were prepared. After the sample was implanted, the periosteum and skin were sutured, and the surgery was completed. […] In the rats of the teriparatide subcutaneous injection group, 10 μg/kg of the teriparatide prepared in Production Example 5 was subcutaneously injected immediately after surgery and every day thereafter. Subcutaneous injection was performed in such a manner that the thawed teriparatide solution was sucked by a 1-mL syringe (27 G injection needle), the back skin was sterilized with a dilute Hibitane solution, and then a considerable amount of teriparatide solution was injected subcutaneously in the back. The observation period after surgery was 8 weeks for each group, and 5 rats were used in each period. […] Similarly, after CT photography 8 weeks after surgery, the rats were euthanized under anesthesia with an excess amount of pentobarbital. […] Then, tissue sections (thickness: […]) cut in the frontal plane were prepared, and a histological search was performed by hematoxylin-eosin staining. Further, using the plural tissue sections corresponding to the center of the defect of each sample, the ratio of new bone (n-Bone %) in the created defect was examined by histological quantification. Variance analysis, etc., were conducted using the average value and standard deviation of n-Bone % in each group, and a significance test was conducted. The significance level was set at 5%.

[2] = test system: local bone formation; conditions: subcutaneous administration of PTH; NPL 2; cited from earlier work

CC[C@H](C)[C@H](NC(=O)[C@H](CCC(=O)O)NC(=O)[C@H](CO)NC(=O)[C@@H](NC(=O)[C@@H](N)CO)C(C)C)C(=O)N[C@@H](CCC(N)=O)C(=O)N[C@@H](CC(C)C)C(=O)N[C@@H](CCSC)C(=O)N[C@@H](Cc1cnc[nH]1)C(=O)N[C@@H](CC(N)=O)C(=O)N[C@@H](CC(C)C)C(=O)NCC(=O)N[C@@H](CCCCN)C(=O)N[C@@H](Cc1cnc[nH]1)C(=O)N[C@@H](CC(C)C)C(=O)N[C@@H](CC(N)=O)C(=O)N[C@@H](CO)C(=O)N[C@@H](CCSC)C(=O)N[C@@H](CCC(=O)O)C(=O)N[C@@H](CCCN=C(N)N)C(=O)N[C@H](C(=O)N[C@@H](CCC(=O)O)C(=O)N[C@@H](Cc1c[nH]c2ccccc12)C(=O)N[C@@H](CC(C)C)C(=O)N[C@@H](CCCN=C(N)N)C(=O)N[C@@H](CCCCN)C(=O)N[C@@H](CCCCN)C(=O)N[C@@H](CC(C)C)C(=O)N[C@@H](CCC(N)=O)C(=O)N[C@@H](CC(=O)O)C(=O)N[C@H](C(=O)N[C@@H](Cc1cnc[nH]1)C(=O)N[C@@H](CC(N)=O)C(=O)N[C@@H](Cc1ccccc1)C(=O)O)C(C)C)C(C)C [teriparatide]
ratio of new bone (n-Bone %) in the defect ([1]; 8 weeks after surgery, PTH groups: teriparatide 10 μg/kg subcutaneously every day, FIG. 5): 31.1±10.2%
X-ray photographs of the bone defect sites, living state (radiopaque image) ([1]; FIG. 1, PTH groups: teriparatide 10 μg/kg s.c. daily): radiopaque images in the defects were equally scarce
X-ray photographs of the calvarium and the surrounding tissue (radiopaque image) ([1]; FIG. 2, PTH groups: teriparatide 10 μg/kg s.c. daily): their thickness was thinner than that of the existing bone
stained pathological specimens, low-magnification (×1.25) ([1]; FIG. 3, 8 weeks after surgery, hematoxylin-eosin): thin bone tissue extending from the defect margins
stained pathological specimens, high-magnification ([1]; FIG. 4, 8 weeks after surgery, hematoxylin-eosin): thin new bone extended from the defect margins
new bone formation (summary of FIGS. 1 to 5) ([1]; teriparatide 10 μg/kg s.c. daily, 8 weeks): new bone formation was not observed
local bone formation [2]: significantly promoted
